Test results published in patent publication US8278298B2, “Inhibition of tau-tau-association” (Wista Laboratories Ltd., priority 1995, dated 2012).
Entries after “also recorded” stand apart in the source; their conditions may differ.

Key:
[1] = systemic administration; cited from earlier work
[2] = molecular target: T1, tau-tau binding (truncated core tau unit of the PHF / full-length tau T40) (Homo sapiens, UniProt P10636); assay: Tau-tau binding assay (truncated core tau unit in solid phase, tau in aqueous phase); conditions: for Ki: standard competitive inhibition model
T1 construct: the truncated core tau unit terminating at Ala-390 (“a”); made in house; host or cells: E. coli BL21 (DE3), plasmid pRK172
Text: Particularly preferred is the following configuration for tau-tau binding assays (FIG. 10): A tau fragment, preferably a recombinant tau fragment, corresponding to the truncated tau unit of the core PHF is bound to a solid phase, e.g. a conventional ELISA plate, in buffer conditions which have been shown not to favour tau-tau association. […] The solid phase is usually poly(vinyl-chloride), but may be other polymers such as cellulose, polyacrylamide, nylon, polystyrene or polypropylene. The solid supports may be in the form of tubes, beads, discs or micro plates, or any other surfaces suitable for conducting an assay, and which on passive binding of tau protein, exposes the high affinity tau capture site. Following binding, the solid phase-antibody complex is washed in preparation for the test sample.
Next, a truncated unit terminating at Glu-391 was incubated. Only the lafter could be detected as mAb 423 immunoreactivity. […] Therefore plating of the core tau unit for passive binding to solid phase matrix was carried out in this buffer. If desired, a depolymerised tubulin preparation or a preparation of microtubules in the same buffer can be plated for passive binding for determination of tau-tubulin binding. Suitable agents for blocking excess binding sites are milk extract, bovine serum albumin, gelatine, etc. […]
FIG. 8: Tau binding assay configuration in which binding of two truncated units is measured. […]
FIG. 10: Standard configuration for measurement of binding of full-length tau (“t”) to the truncated core tau unit previously bound passively to the solid phase (“a”). […] Binding is detected by an appropriate antibody, which recognises an epitope located near the N-terminus of full-length tau.
(§1) FIG. 20: Selective inhibition of tau-tau-binding by thionine. […] The Ki values were calculated using the Kd values obtained from the corresponding binding studies using full-length tau. […]
The assay is carried out in a 96-well PVC microtitre plate, with solutions added and readings taken with respect to individual wells: […]

3T3 cells = assay: Toxicity of inhibitors in 3T3 cells; assay type: cell-based, mouse
Method: (§2) Mouse fibroblast 3T3 cells were transfected with a eukaryotic expression vector (pIF2) containing full-length and truncated forms of tau protein under constitutive control by a β-globin promotor. This vector contains a neomycin resistance gene as a selectable marker (pSV2neo; Sambrook et al. (1989), loc. cit.; modified by M. N. Neuberger). Cells were cultured in […] (DMEM) containing antimicrobial agents and 10% foetal calf serum at 37° C. in an atmosphere of 5% CO2. They were transfected with plasmid DNA either using a standard calcium phosphate protocol or by lipofection (according to manufacturers protocol; Gibco BRL). Cells which had integrated the plasmid DNA were selected by viability in medium containing Geneticin (0.5 mg/ml; Southern and Berg (1982), J. Mol. Appl. Genet. 1, 327).
The toxicity of the truncated core tau unit might be reversible in part if the prototype phenothiazine inhibitors could be used to block self-aggregation in vivo. This would be feasible only if the compounds were not intrinsically toxic at concentrations needed to block tau-tau binding. […] In practice, 3T3 cells could be grown several month in the presence of 2 μM thionine.

[3] = test system: 3T3 fibroblast transfected with full-length tau protein; assay: Cytoskeletal distribution of tau in 3T3 fibroblasts transfected with full-length tau; assay type: cell-based, mouse
Method: as §2
The influence of thionine on the tau-tubulin binding interaction was examined in vivo by culturing 3T3 fibroblast transfected with full-length tau protein in the presence of thionine at a range of concentrations.

PC-12 cells = assay: pNFH aggregates and neurite incorporation in PC-12 cells; assay type: cell-based; conditions: for Frequency of cells with pNFH aggregates: after db-cAMP, with thionine
Method: (§3) Neuronal cell lines (N2A, NIE-115) were cultured in DMEM containing 2% or 10% foetal calf serum and 5% horse serum on tissue culture plates coated with collagen. These were all grown at 37° C. in an atmosphere containing 5% CO2. Initial immunohistochemical studies of neuronal cell lines prior to transfection led to the identification of cytoplasmic aggregates immunoreactive with mAb 423 forming in the cytoplasm of undifferentiated neuroblastoma cells (N2A cells) and in PC-12 cells after brief treatment with dibutyryl-cAMP (db-cAMP, known to differentiate neuroblastoma cells in tissue culture). […] In the course of differentiation, this endogenous mAb 423 immunoreactivity was seen to shift from the cytoplasm to neurites. Immunoprecipitation of mAb423 immunoreactivity from these cells led to the identification of a species with gel mobility of 230 kDa which was recognised by SMI-31. […] We refer to them as presumptive-NFH aggregates (pNFH).
PC-12 cells were transfected with the pIF2 vector containing either the PHF-core tau fragment truncated at Glu-391 or full-length tau protein. As with 3T3 fibroblasts, no viable cell lines transfected with truncated tau were produced unless cells were grown in thionine following transfection. Once stahilised, transfected cell lines were analysed in the presence or absence of db-cAMP and in the presence and absence of thionine. Two end-points were examined: formation of cytoplasmic pNPH aggregates, and distribution of pNFH immunoreactivity into neurites.

[4] = test system: 3T3 cells transfected with truncated tau; assay: Viability of 3T3 cells transfected with truncated tau; assay type: cell-based, mouse; conditions: grown in higher concentrations of thionine
Method: as §2
The number of viable cell lines transfected with truncated tau increased when the cells were grown in the presence of higher concentrations of thionine.

[5] = test system: 3T3 cells transfected with PIF2::T40; assay: Lipofectin/tau protein transfer into 3T3 cells expressing full-length tau; assay type: cell-based, mouse; conditions: truncated tau transferred via lipofectin, all three concentrations of truncated tau; thionine 1 μM
Method: FIG. 30: Lipofectin/tau protein transfers into 3T3 cells transfected with PIF2::T40. Relative cell survival (normalised to cell counts after Lipofectin treatment without protein) is shown for approximately equimolar concentrations of full-length (T40, 220 nM) and truncated tau (dGAE, 300 nM), without (unshaded) or with shaded) thionine at 1 μM. Truncated tau is more toxic than full-length tau (p=0.02), despite the fact that at equimolar concentrations, the total protein load is 5× greater in the case of full-length tau.
FIGS. 31A and 31B: (FIG. 31A) Reversal of truncated tau toxicity: The toxicity of truncated tau transferred via lipofectin into 3T3 cells expressing full-length tau is concentration dependent. […] (FIG. 31B) Similar experiment in which full-length tau was transferred via lipofectin into 3T3 cells expressing full-length. Both toxicity and thionine effects were much less apparent.

[6] = molecular target: tau-tubulin binding (depolymerised tubulin coated, tau incubated) (Homo sapiens, UniProt P10636); assay: Tau-tubulin binding assay; conditions: read-out: Ki for inhibition of the tau-tubulin binding interaction in vitro
Method: A method of determining any possible interference, i.e. binding of tau or a derivative thereof to tubulin molecules, comprises contacting a depolymerised tubulin preparation, or preparation of taxol-stabilised microtubules with an agent suspected of being capable of modulating or inhibiting pathological tau-tau association and a tau compound mentioned in above step c) followed by detection of the tau-tubulin binding.
Next, a truncated unit terminating at Glu-391 was incubated. Only the lafter could be detected as mAb 423 immunoreactivity. […] Therefore plating of the core tau unit for passive binding to solid phase matrix was carried out in this buffer. If desired, a depolymerised tubulin preparation or a preparation of microtubules in the same buffer can be plated for passive binding for determination of tau-tubulin binding. Suitable agents for blocking excess binding sites are milk extract, bovine serum albumin, gelatine, etc. […] No binding of full-length tau was seen without prior plating of the core tau unit in the solid phase. When both species were present, binding was seen to depend on concentration of both species. […]
as §1

[7] = test system: tau/MAP2 binding interaction (foetal MAP2C); assay: Tau/MAP2 binding in the standard binding assay; conditions: truncated tau/MAP2C and MAP2C/full-length tau configurations
Text: One possible explanation for the lack of MAP2 in PHFs might be that MAP2 in PHFs might be MAP2 is unable to bind to the core tau unit of the PHF because of sequence differences in the repeat regions. This was examined experimentally using the standard binding assay in two configurations: truncated tau in the solid phase with foetal MAP2C in the aqueous phase, and MAP2C in the solid phase with full-length tau in the aqueous phase. […] Thus, aggregation in the tandem-repeat region is not selective for tau, and the inhibitory activity of phenothiazine inhibitors such as thionine is not dependent on sequences unique to tau. The reason why MAP2 is not found in PHFs is at present unknown, but factors may include the contribution of the large N-terminal domain found in the adult form of MAP2, compartment differences within the cell, or other differences in processing of the MAP2 molecules.

NIE-115 cells = assay: pNFH aggregates and neurite incorporation in NIE-115 cells; assay type: cell-based
Method: as §3
Rather, pNFH immunoreactivity was normally incorporated into growing neurites during the course of differentiation, although an early perinuclear-arc stage was also seen. NIE cells were transfected as above with the pIF2 vector containing either full-length or truncated tau protein and grown in the presence of thionine. The effects of adding db-cAMP in the presence or absence of thionine were then examined.

neuronal cell lines = assay: Toxicity for neuronal cell lines; assay type: cell-based; conditions: concentrations up to 2 μM

T1 sequence (P10636 614-707 limits assumed): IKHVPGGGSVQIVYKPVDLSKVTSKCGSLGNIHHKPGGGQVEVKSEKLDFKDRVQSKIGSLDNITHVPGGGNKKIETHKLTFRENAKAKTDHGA
tau-tubulin binding (depolymerised tubulin coated, tau incubated), sequence (P10636 1-441 isoform P10636-8): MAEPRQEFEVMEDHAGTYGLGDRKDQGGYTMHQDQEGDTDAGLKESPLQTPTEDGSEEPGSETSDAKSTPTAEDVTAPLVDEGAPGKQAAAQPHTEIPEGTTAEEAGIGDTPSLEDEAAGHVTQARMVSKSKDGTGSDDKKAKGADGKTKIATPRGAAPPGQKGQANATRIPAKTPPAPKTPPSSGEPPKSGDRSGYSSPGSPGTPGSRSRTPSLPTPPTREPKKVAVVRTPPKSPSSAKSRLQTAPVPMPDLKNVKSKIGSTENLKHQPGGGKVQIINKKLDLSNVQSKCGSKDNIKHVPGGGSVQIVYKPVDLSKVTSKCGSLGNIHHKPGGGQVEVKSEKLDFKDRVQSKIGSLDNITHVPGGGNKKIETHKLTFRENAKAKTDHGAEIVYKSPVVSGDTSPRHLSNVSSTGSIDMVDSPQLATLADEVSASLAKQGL

Question: With CN(C)c1ccc2nc3ccc(=[N+](C)C)cc-3sc2c1 [methylene blue] as the compound, how does the CNS penetration [1] read?
Answer: CNS penetration following systemic administration has been described

Question: For acriflavin [reference compound], which Ki [2] is on record?
Answer: 100 nM

Question: What about the “Toxicity in 3T3 cells / fibroblasts” value (3T3 cells) of the same compound?
Answer: lowest toxicity

Question: With thionine as the compound, how does the “Concentration causing disruption of normal cytoskeletal distribution of tau immunoreactivity” value [3] read?
Answer: 4 to 8 µM

Question: What about the “Effect on cytoskeletal distribution of tau” value ([3]; concentration range 0.5-2 μM) of the same compound?
Answer: no effect

Question: What about the pNFH-neurite index (PC-12 cells; PC-12 cells transfected with truncated tau, with thionine (0.04 without)) of the same compound?
Answer: 0.49

Question: What about the “Frequency of cells with pNFH aggregates” value (PC-12 cells; all transfected cells (49% after withdrawal)) of the same compound?
Answer: 27%

Question: What about the “Frequency of cells with pNFH aggregates” value (PC-12 cells; cells transfected with full-length tau (32% after withdrawal)) of the same compound?
Answer: 16%

Question: What about the “Frequency of cells with pNFH aggregates” value (PC-12 cells; cells transfected with truncated tau (60% after withdrawal)) of the same compound?
Answer: 36%

Question: And the “Inhibition of pNFH aggregates in the cytoplasm” value (PC-12 cells; untransfected PC-12 cells)?
Answer: Dose-dependent inhibition

Question: What about the Ki [2] of the same compound?
Answer: 100 nM

Question: And the “Toxicity in 3T3 cells / fibroblasts” value (3T3 cells)?
Answer: lowest toxicity; also recorded: does not appear to have substantial intrinsic toxicity

Question: What about the “Concentration at which 3T3 cells could be grown several months” value (3T3 cells; prolonged culture) of the same compound?
Answer: 2000 nM

Question: And the “Number of viable cell lines transfected with truncated tau” value [4]?
Answer: increased

Question: And the “Reversal of truncated tau toxicity” value [5]?
Answer: significantly reversed toxicity

Question: What about the Ki [6] of the same compound?
Answer: 8000 nM

Question: And the “Effect on tau/MAP2 binding interaction” value [7]?
Answer: blocked

Question: And the pNFH-neurite index (NIE-115 cells; NIE-ND1, after db-cAMP, with thionine as printed (0.66 without))?
Answer: 0.1

Question: What about the “Proportion of cells containing pNFH aggregates” value (NIE-115 cells; NIE-ND6, transfected with truncated tau, with thionine (44% after withdrawal)) of the same compound?
Answer: 14%

Question: What about the “Incorporation of transgenic tau protein into the microtubular cytoskeleton” value (NIE-115 cells; cells transfected with full-length tau) of the same compound?
Answer: did not interfere

Question: And the “Proportion of cells containing pNFH aggregates” value (NIE-115 cells; cells transfected with full-length tau, with thionine (16% after withdrawal))?
Answer: 7%

Question: What about the “Toxicity for neuronal cell lines” value (neuronal cell lines) of the same compound?
Answer: not toxic

Question: For POTr: fetal rat tau, which “Binding to the core tau unit” value ([2]; introduced in the aqueous phase) is on record?
Answer: incapable of pathological binding
